Test results taken from patent US10239869B2, “Sulfonamide compounds as voltage-gated sodium channel modulators” (LUPIN LIMITED, priority 2015, dated 2019).
Where two headings read alike, the source gives them in different places.

Key:
Nav 1.7 = Nav 1.7 (Homo sapiens (Human), UniProt Q15858); assay: Inhibition of sodium channels, Red Membrane Potential Dye FLIPR assay, veratridine depolarization; assay type: cell-based; conditions: HEK-293 cells overexpressing the channel; read-out: Nav1.7 IC50
Nav 1.5 = Nav 1.5 (Homo sapiens (Human), UniProt Q14524); assay: as above; assay type: cell-based; conditions: HEK-293 cells overexpressing the channel; for inhibition at 10 µM: HEK-293 cells overexpressing Nav 1.5
Chain of Nav 1.5 (Q14524 whole entry): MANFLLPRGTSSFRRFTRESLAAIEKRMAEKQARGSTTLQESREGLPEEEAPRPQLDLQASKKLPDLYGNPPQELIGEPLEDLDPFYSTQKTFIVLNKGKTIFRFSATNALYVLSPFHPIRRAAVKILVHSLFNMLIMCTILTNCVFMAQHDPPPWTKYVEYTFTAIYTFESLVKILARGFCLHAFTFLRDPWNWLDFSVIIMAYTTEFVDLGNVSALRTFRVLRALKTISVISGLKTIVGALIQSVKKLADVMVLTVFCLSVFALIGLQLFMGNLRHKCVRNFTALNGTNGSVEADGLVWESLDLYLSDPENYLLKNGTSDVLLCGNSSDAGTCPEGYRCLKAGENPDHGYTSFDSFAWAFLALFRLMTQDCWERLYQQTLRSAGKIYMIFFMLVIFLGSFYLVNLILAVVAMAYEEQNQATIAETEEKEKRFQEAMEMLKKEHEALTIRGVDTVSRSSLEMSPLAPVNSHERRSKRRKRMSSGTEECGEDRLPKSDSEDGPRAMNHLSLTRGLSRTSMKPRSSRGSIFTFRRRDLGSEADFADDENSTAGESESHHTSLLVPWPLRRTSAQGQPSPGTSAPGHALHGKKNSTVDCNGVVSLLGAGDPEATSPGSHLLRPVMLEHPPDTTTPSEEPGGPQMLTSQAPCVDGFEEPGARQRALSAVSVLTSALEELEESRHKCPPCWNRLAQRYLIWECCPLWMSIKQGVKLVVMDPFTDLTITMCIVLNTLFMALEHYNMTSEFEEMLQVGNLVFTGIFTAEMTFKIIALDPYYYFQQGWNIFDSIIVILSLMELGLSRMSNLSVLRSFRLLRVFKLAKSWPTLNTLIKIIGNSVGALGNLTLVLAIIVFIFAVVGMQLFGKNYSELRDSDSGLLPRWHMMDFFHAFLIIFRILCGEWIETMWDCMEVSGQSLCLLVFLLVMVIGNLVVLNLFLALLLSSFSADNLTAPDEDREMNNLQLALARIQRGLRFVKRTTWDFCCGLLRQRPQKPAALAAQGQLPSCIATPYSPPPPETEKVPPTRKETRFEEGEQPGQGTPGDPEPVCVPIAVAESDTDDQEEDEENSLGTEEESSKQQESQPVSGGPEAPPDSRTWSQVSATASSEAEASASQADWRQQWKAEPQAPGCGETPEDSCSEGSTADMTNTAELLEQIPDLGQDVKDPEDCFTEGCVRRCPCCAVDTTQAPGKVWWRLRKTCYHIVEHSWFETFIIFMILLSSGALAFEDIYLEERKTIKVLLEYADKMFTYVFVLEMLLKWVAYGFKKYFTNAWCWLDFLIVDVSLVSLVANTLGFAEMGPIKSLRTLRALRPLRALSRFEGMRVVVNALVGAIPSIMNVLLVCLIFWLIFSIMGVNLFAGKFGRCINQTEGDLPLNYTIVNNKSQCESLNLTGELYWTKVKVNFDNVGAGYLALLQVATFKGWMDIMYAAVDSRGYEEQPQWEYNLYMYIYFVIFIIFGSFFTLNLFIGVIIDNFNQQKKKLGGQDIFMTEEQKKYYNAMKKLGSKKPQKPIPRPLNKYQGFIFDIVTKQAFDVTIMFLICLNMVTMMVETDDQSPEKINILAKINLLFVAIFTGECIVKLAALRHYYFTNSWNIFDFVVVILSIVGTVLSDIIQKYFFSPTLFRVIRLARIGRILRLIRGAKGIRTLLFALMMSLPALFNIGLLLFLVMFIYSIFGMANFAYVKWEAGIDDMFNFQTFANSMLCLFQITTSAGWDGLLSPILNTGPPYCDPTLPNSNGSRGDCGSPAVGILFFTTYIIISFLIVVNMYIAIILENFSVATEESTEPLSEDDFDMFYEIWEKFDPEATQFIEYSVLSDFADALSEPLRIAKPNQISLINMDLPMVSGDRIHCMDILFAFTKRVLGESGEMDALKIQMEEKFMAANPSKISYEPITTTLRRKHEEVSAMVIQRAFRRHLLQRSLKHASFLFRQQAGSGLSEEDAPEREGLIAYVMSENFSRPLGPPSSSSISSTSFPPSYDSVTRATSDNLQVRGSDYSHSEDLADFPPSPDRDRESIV

[1] = read-out: Nav1.5 IC50 (bound given in μM)

Chain of Nav 1.7 (Q15858 whole entry): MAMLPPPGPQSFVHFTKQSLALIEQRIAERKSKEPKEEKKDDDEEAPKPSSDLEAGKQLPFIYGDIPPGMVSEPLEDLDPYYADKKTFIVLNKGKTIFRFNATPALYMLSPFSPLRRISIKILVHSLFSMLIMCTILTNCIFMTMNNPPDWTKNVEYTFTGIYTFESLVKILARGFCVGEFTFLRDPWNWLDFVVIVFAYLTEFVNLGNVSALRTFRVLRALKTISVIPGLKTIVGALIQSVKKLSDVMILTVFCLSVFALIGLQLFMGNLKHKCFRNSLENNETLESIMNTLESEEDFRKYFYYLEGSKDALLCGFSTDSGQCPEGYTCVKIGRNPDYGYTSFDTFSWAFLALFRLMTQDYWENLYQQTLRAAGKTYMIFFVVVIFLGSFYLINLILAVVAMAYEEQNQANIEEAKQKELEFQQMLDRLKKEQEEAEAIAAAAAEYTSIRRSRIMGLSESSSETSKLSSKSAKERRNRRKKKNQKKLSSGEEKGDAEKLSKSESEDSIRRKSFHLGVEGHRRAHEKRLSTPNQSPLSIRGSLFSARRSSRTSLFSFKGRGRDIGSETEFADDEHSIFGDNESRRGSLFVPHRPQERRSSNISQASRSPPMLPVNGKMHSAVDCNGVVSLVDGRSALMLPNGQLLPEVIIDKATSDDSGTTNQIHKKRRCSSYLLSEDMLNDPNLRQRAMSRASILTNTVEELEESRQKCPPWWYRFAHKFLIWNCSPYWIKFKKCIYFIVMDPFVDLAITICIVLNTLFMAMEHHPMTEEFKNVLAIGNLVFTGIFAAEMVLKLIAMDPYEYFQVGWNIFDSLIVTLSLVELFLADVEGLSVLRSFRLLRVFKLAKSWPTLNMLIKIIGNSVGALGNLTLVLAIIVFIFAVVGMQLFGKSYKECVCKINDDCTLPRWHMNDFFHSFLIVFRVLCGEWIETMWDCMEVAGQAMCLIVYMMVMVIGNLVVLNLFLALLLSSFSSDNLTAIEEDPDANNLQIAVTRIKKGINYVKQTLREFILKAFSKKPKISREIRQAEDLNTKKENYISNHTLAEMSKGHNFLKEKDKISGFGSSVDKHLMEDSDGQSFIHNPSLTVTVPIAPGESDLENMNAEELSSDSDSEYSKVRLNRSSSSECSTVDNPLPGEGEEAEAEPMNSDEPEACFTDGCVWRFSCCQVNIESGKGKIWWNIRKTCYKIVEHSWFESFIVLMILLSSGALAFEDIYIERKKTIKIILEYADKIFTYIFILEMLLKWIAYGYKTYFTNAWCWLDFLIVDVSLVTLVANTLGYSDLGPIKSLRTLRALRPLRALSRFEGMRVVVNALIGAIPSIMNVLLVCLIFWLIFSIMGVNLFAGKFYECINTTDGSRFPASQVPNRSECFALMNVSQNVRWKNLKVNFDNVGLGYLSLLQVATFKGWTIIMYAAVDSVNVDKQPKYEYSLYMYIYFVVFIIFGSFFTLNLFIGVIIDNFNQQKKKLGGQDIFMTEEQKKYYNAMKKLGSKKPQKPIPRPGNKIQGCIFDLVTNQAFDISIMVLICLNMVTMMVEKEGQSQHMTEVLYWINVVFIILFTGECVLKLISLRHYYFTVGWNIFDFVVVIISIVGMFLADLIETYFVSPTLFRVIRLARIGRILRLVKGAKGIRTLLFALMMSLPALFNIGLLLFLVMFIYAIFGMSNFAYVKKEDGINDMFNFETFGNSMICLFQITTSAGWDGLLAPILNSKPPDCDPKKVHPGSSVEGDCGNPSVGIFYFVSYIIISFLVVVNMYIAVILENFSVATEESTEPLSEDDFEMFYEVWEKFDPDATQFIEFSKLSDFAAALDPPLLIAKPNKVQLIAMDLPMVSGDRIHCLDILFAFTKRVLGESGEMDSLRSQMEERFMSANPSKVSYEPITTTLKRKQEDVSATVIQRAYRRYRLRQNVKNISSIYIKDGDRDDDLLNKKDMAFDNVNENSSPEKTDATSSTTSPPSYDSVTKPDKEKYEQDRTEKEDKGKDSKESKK

IC50 (Nav 1.7) [nM]	Compound	inhibition at 10 µM (Nav 1.5) [%]	IC50 (Nav 1.5; read-out: Nav1.5 IC50) [µM]	IC50 (Nav 1.5; [1]) [µM]
0.7	O=S(=O)(Nc1ccncn1)c1ccc2c(c1)OCC[C@@H]2c1ccc(C(F)(F)F)cc1CCCF (racemic) [Example 160, (R/S)-4-(2-(3-fluoropropyl)-4-(trifluoromethyl)phenyl)-N-(pyrimidin-4-yl)chroman-7-sulfonamide]	61		
12	O=S(=O)(Nc1cccnn1)c1ccc2c(c1)OCC[C@@H]2c1ccc(C(F)(F)F)cc1CCCF (racemic) [Example 161, (R/S)-4-(2-(3-fluoropropyl)-4-(trifluoromethyl)phenyl)-N-(pyridazin-3-yl)chroman-7-sulfonamide]		1.35	
0.7	O=S(=O)(Nc1cccc(F)n1)c1ccc2c(c1)OCC[C@@H]2c1ccc(C(F)(F)F)cc1CCCF (racemic) [Example 162, (R/S)-4-(2-(3-fluoropropyl)-4-(trifluoromethyl)phenyl)-N-(6-fluoropyridin-2-yl)chroman-7-sulfonamide]		2.64	
42	O=S(=O)(Nc1ncccn1)c1ccc2c(c1)OCC[C@@H]2c1ccc(C(F)(F)F)cc1CCCCF (racemic) [Example 163, (R/S)-4-(2-(4-fluorobutyl)-4-(trifluoromethyl)phenyl)-N-(pyrimidin-2-yl)chroman-7-sulfonamide]		0.307	
61	O=S(=O)(Nc1ncc(F)cn1)c1ccc2c(c1)OCC[C@@H]2c1ccc(C(F)(F)F)cc1CCCCF (racemic) [Example 164, (R/S)-4-(2-(4-fluorobutyl)-4-(trifluoromethyl)phenyl)-N-(5-fluoropyrimidin-2-yl)chroman-7-sulfonamide]	81		
5	O=S(=O)(Nc1ccncn1)c1ccc2c(c1)OCC[C@@H]2c1ccc(C(F)(F)F)cc1CCCCF (racemic) [Example 165, (R/S)-4-(2-(4-fluorobutyl)-4-(trifluoromethyl)phenyl)-N-(pyrimidin-4-yl)chroman-7-sulfonamide]		0.303	
50	O=S(=O)(Nc1cccnn1)c1ccc2c(c1)OCC[C@@H]2c1ccc(C(F)(F)F)cc1CCCCF (racemic) [Example 166, (R/S)-4-(2-(4-fluorobutyl)-4-(trifluoromethyl)phenyl)-N-(pyridazin-3-yl)chroman-7-sulfonamide]		0.134	
58	O=S(=O)(Nc1cccc(F)n1)c1ccc2c(c1)OCC[C@@H]2c1ccc(C(F)(F)F)cc1CCCCF (racemic) [Example 167, (R/S)-4-(2-(4-fluorobutyl)-4-(trifluoromethyl)phenyl)-N-(6-fluoropyridin-2-yl)chroman-7-sulfonamide]		0.241	
55	O=S(=O)(Nc1ncc(F)cn1)c1ccc2c(c1)OCC[C@@H]2c1ccc(C(F)(F)F)cc1O[C@H]1CCOC1 (racemic) [Example-182, (S/R)—N-(5-fluoropyrimidin-2-yl)-4-(2-(((S)-tetrahydrofuran-3-yl)oxy)-4-(trifluoromethyl)phenyl)chroman-7-sulfonamide]	30		
11	O=S(=O)(Nc1ccncn1)c1ccc2c(c1)OCC[C@@H]2c1ccc(C(F)(F)F)cc1O[C@H]1CCOC1 (racemic) [Example-183, (S/R)—N-(pyrimidin-4-yl)-4-(2-(((S)-tetrahydrofuran-3-yl)oxy)-4-(trifluoromethyl)phenyl)chroman-7-sulfonamide]			> 10
170	O=S(=O)(Nc1cccnn1)c1ccc2c(c1)OCC[C@@H]2c1ccc(C(F)(F)F)cc1O[C@H]1CCOC1 (racemic) [Example-184, (S/R)—N-(pyridazin-3-yl)-4-(2-(((S)-tetrahydrofuran-3-yl)oxy)-4-(trifluoromethyl)phenyl)chroman-7-sulfonamide]	67		
671	O=C(O)c1ccc(-c2cc(C(F)(F)F)ccc2[C@H]2CCOc3cc(S(=O)(=O)Nc4cccnn4)ccc32)cc1 (racemic) [Example-191, (R/S)-2′-(7-(N-(pyridazin-3-yl)sulfamoyl)chroman-4-yl)-5′-(trifluoromethyl)-[1,1′-biphenyl]-4-carboxylic acid]			> 10
8	O=C(O)c1ccc(-c2cc(C(F)(F)F)ccc2[C@H]2CCOc3cc(S(=O)(=O)Nc4cccc(F)n4)ccc32)cc1 (racemic) [Example-192, (R/S)-2′-(7-(N-(6-fluoropyridin-2-yl)sulfamoyl)chroman-4-yl)-5′-(trifluoromethyl)-[1,1′-biphenyl]-4-carboxylic acid]			> 10
49	O=C1OCCN1c1cc(C(F)(F)F)ccc1[C@H]1CCOc2cc(S(=O)(=O)Nc3ncccn3)ccc21 (racemic) [Example-207, (R/S)-4-(2-(2-oxooxazolidin-3-yl)-4-(trifluoromethyl)phenyl)-N-(pyrimidin-2-yl)chroman-7-sulfonamide]			> 10
46	O=C1OCCN1c1cc(C(F)(F)F)ccc1[C@H]1CCOc2cc(S(=O)(=O)Nc3ncc(F)cn3)ccc21 (racemic) [Example-208, (R/S)—N-(5-fluoropyrimidin-2-yl)-4-(2-(2-oxooxazolidin-3-yl)-4-(trifluoromethyl)phenyl)chroman-7-sulfonamide]			> 10
47	O=C1OCCN1c1cc(C(F)(F)F)ccc1[C@H]1CCOc2cc(S(=O)(=O)Nc3cccnn3)ccc21 (racemic) [Example-209, (R/S)-4-(2-(2-oxooxazolidin-3-yl)-4-(trifluoromethyl)phenyl)-N-(pyridazin-3-yl)chroman-7-sulfonamide]	28		
48	O=C1OCCN1c1cc(C(F)(F)F)ccc1[C@H]1CCOc2cc(S(=O)(=O)Nc3cccc(F)n3)ccc21 (racemic) [Example-210, (R/S)—N-(6-fluoropyridin-2-yl)-4-(2-(2-oxooxazolidin-3-yl)-4-(trifluoromethyl)phenyl)chromane-7-sulfonamide]			> 10
7	O=S(=O)(Nc1ncccn1)c1ccc2c(c1)OCC[C@@H]2c1ccc(C(F)(F)F)cc1CCC(F)F (racemic) [Example-211, (R/S)-4-(2-(3,3-difluoropropyl)-4-(trifluoromethyl)phenyl)-N-(pyrimidin-2-yl)chroman-7-sulfonamide]		0.777	
18	O=S(=O)(Nc1ncc(F)cn1)c1ccc2c(c1)OCC[C@@H]2c1ccc(C(F)(F)F)cc1CCC(F)F (racemic) [Example-212, (R/S)-4-(2-(3,3-difluoropropyl)-4-(trifluoromethyl)phenyl)-N-(5-fluoropyrimidin-2-yl)chroman-7-sulfonamide]			> 10
34	O=S(=O)(Nc1ccncn1)c1ccc2c(c1)OCC[C@@H]2c1ccc(C(F)(F)F)cc1CCC(F)F (racemic) [Example-213, (R/S)-4-(2-(3,3-difluoropropyl)-4-(trifluoromethyl)phenyl)-N-(pyrimidin-4-yl)chroman-7-sulfonamide]	65		
2	O=S(=O)(Nc1cccnn1)c1ccc2c(c1)OCC[C@@H]2c1ccc(C(F)(F)F)cc1CCC(F)F (racemic) [Example-214, (R/S)-4-(2-(3,3-difluoropropyl)-4-(trifluoromethyl)phenyl)-N-(pyridazin-3-yl)chroman-7-sulfonamide]		0.635	
38	O=S(=O)(Nc1cccc(F)n1)c1ccc2c(c1)OCC[C@@H]2c1ccc(C(F)(F)F)cc1CCC(F)F (racemic) [Example-215, (R/S)-4-(2-(3,3-difluoropropyl)-4-(trifluoromethyl)phenyl)-N-(6-fluoropyridin-2-yl)chromane-7-sulfonamide]		1.35	
43	O=S(=O)(Nc1ncc(F)cn1)c1ccc2c(c1)OCC[C@@H]2c1ccc(C(F)(F)F)cc1OC1COC1 (racemic) [Example-218, (S/R)—N-(5-fluoropyrimidin-2-yl)-4-(2-(oxetan-3-yloxy)-4-(trifluoromethyl)phenyl)chroman-7-sulfonamide]			> 10
34	O=S(=O)(Nc1cccc(F)n1)c1ccc2c(c1)OCC[C@@H]2c1ccc(C(F)(F)F)cc1OC1COC1 (racemic) [Example-219, (S/R)—N-(6-fluoropyridin-2-yl)-4-(2-(oxetan-3-yloxy)-4-(trifluoromethyl)phenyl)chromane-7-sulfonamide]	40		
63	Cc1nc(-c2cc(C(F)(F)F)ccc2[C@H]2CCOc3cc(S(=O)(=O)Nc4ncccn4)ccc32)ccc1F (racemic) [Example-222, (R/S)-4-(2-(5-fluoro-6-methylpyridin-2-yl)-4-(trifluoromethyl)phenyl)-N-(pyrimidin-2-yl)chroman-7-sulfonamide]	73		
82	Cc1nc(-c2cc(C(F)(F)F)ccc2[C@H]2CCOc3cc(S(=O)(=O)Nc4ncc(F)cn4)ccc32)ccc1F (racemic) [Example-223, (R/S)-4-(2-(5-fluoro-6-methylpyridin-2-yl)-4-(trifluoromethyl)phenyl)-N-(5-fluoropyrimidin-2-yl)chroman-7-sulfonamide]	33		
51	Cc1nc(-c2cc(C(F)(F)F)ccc2[C@H]2CCOc3cc(S(=O)(=O)Nc4cccnn4)ccc32)ccc1F (racemic) [Example-224, (R/S)-4-(2-(5-fluoro-6-methylpyridin-2-yl)-4-(trifluoromethyl)phenyl)-N-(pyridazin-3-yl)chroman-7-sulfonamide]		2.12	
12	Cc1nc(-c2cc(C(F)(F)F)ccc2[C@H]2CCOc3cc(S(=O)(=O)Nc4cccc(F)n4)ccc32)ccc1F (racemic) [Example-225, (R/S)-4-(2-(5-fluoro-6-methylpyridin-2-yl)-4-(trifluoromethyl)phenyl)-N-(6-fluoropyridin-2-yl)chroman-7-sulfonamide]		1.5	
